Values quoted from earlier work as cited in patent US12462914B2, “Systems and methods for dispensing a statin medication over the counter” (ASTRAZENECA UK LIMITED, priority 2016, dated 2025).

Conditions: co-administration of warfarin with a single oral dose of atorvastatin

## CC(C)c1c(C(=O)Nc2ccccc2)c(-c2ccccc2)c(-c2ccc(F)cc2)n1CC[C@@H](O)C[C@@H](O)CC(=O)O [atorvastatin]
  effect on the pharmacokinetics of atorvastatin: no significant effect
